Assay results: patent US8304447B2, “2-acylaminopropoanol-type glucosylceramide synthase inhibitors” (Genzyme Corporation, priority 2007, dated 2012)

The compounds below were run on GM3 (assay: GM3 Elisa assay). Details: 48 h, Table 1; B16-FO cells, 2 days incubation; read-out: IC50_uM_Mean.
Format: cell-based
Method in brief: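 Cellular GM3 ELISA: fixed cells probed with monoclonal anti-GM3 (NeuAc), HRP-conjugated anti-IgM and fluorogenic Quantablu substrate, read at Ex 325/Em 420. Cells were B16-FO, treated 2 days after a 6 h attachment on collagen-coated wells.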
O=C(Cc1ccc(-c2ccccc2)cc1)N[C@H](CN1CCCC1)[C@H](O)c1ccc2c(c1)OCCO2 [Compound 23, 2-(biphenyl-4-yl)-N-((R,2R)-1-(2,3-dihydrobenzo[β][1,4]dioxin-6-yl)-1-hydroxy-3-(pyrrolidin-1-yl)propan-2-yl)acetamide] showed an IC50 of no more than 0.1 µM. Compound O=C(CCOc1ccccc1)N[C@H](CN1CCCC1)[C@H](O)c1ccc2c(c1)OCCO2 [Compound 27, N-((1R,2R)-1-(2,3-dihydrobenzo[β][1,4]dioxin-6-yl)-1-hydroxy-3-(pyrrolidin-1-yl)propan-2-yl)-3-phenoxypropanamide] has an IC50 of no more than 0.1 µM. In the case of O=C(N[C@H](CN1CCCC1)[C@H](O)c1ccc2c(c1)OCCO2)c1cc2ccccc2s1 [Compound 5, N-((1R,2R)-1-(2,3-dihydrobenzo[β][1,4]dioxin-6-yl)-1-hydroxy-3-(pyrrolidin-1-yl)propan-2-yl)benzo[b]thiophene-2-carboxamide], the IC50 is reported as 0.1 to 1 µM. For CCCCCCCCCCCCNC(=O)N[C@H](CN1CCCC1)[C@H](O)c1ccc2c(c1)OCCO2 [Compound 7, 1-((1R,2R)-1-(2,3-dihydrobenzo[β][1,4]dioxin-6-yl)-1-hydroxy-3-(pyrrolidin-1-yl)propan-2-yl)-3-dodecylurea], the IC50 was no more than 0.1 µM. O=C(CCCc1nc2ccccc2s1)NC(CN1CCCC1)[C@H](O)c1ccc2c(c1)OCCO2 (stereo partly drawn) [Compound 101, 4-(benzo[d]thiazol-2-yl)-N-((1R,2R)-1-(2,3-dihydrobenzo[β][1,4]dioxin-6-yl)-1-hydroxy-3-(pyrrolidin-1-yl)propan-2-yl)butanamide] showed an IC50 of no more than 0.1 µM. Compound O=C(Cc1ccc(-c2cccnc2)cc1)N[C@H](CN1CCCC1)[C@H](O)c1ccc2c(c1)OCCO2 [Compound 47, N-((1R,2R)-1-(2,3-dihydrobenzo[β][1,4]dioxin-6-yl)-1-hydroxy-3-(pyrrolidin-1-yl)propan-2-yl)-2-(4-(pyridin-3-yl)phenyl)acetamide] has an IC50 of 0.1 to 1 µM. With O=C(CCCCCNS(=O)(=O)c1ccc2c(c1)OCCO2)N[C@H](CN1CCCC1)[C@H](O)c1ccc2c(c1)OCCO2 [Compound 102, N-((1R,2R)-1-(2,3-dihydrobenzo[β][1,4]dioxin-6-yl)-1-hydroxy-3-(pyrrolidin-1-yl)propan-2-yl)-6-(2,3-dihydrobenzo[β][1,4]dioxine-6-sulfonamido)hexanamide] the IC50 was 1 to 3 µM. O=C(NCc1ccc(F)cc1)N[C@H](CN1CCCC1)[C@H](O)c1ccc2c(c1)OCCO2 [Compound 17, 1-((1R,2R)-1-(2,3-dihydrobenzo[β][1,4]dioxin-6-yl)-1-hydroxy-3-(pyrrolidin-1-yl)propan-2-yl)-3-(4-fluorobenzyl)urea] was tested, and the IC50 was no more than 0.1 µM. In the case of O=C(Cc1cccc(C(F)(F)F)c1)N[C@H](CN1CCCC1)[C@H](O)c1ccc2c(c1)OCCO2 [Compound 51, N-((1R,2R)-1-(2,3-dihydrobenzo[β][1,4]dioxin-6-yl)-1-hydroxy-3-(pyrrolidin-1-yl)propan-2-yl)-2-(3-(trifluoromethyl)phenyl)acetamide], the IC50 is reported as 0.1 to 1 µM. O=C(Cc1cccc(Oc2ccccc2)c1)N[C@H](CN1CCCC1)[C@H](O)c1ccc2c(c1)OCCO2 [Compound 86, N-((1R,2R)-1-(2,3-dihydrobenzo[b][1,4]dioxin-6-yl)-1-hydroxy-3-(pyrrolidin-1-yl)propan-2-yl)-2-(3-phenoxyphenyl)acetamide] was tested, and the IC50 was no more than 0.1 µM.

Same assay, conditions: 48 h, Table 2; B16-FO cells, 2 days incubation; read-out: IC50_uM_Mean
Compound CCCCc1ccc([C@@H](O)[C@@H](CN2CCCC2)NC(=O)CCOc2ccc(OC)cc2)cc1 [Compound 260] has an IC50 of no more than 0.1 µM. Compound CCCCCCCC(=O)N[C@H](CN1C(C)CCC1C)[C@H](O)c1ccc2c(c1)OCCO2 (stereo partly drawn) [Compound 314] has an IC50 of 1 to 3 µM. For COc1ccc([C@@H](O)[C@@H](CN2CCCC2)NC(=O)CCCCCC(C)=O)cc1 [Compound 279], the IC50 was 1 to 3 µM. For CC(C)Oc1ccc(C(=O)CCCC(=O)N[C@H](CN2CCCC2)[C@H](O)c2ccc3c(c2)OCCO3)cc1 [Compound 284, N-((1R,2R)-1-(2,3-dihydrobenzo[β][1,4]dioxin-6-yl)-1-hydroxy-3-(pyrrolidin-1-yl)propan-2-yl)-5-(4-isopropoxyphenyl)-5-oxopentanamide], the IC50 was no more than 0.1 µM.

Same assay, conditions: Table 3 (IC 50 Values); B16-FO cells; read-out: IC50_uM_Mean
Compound COc1ccc(C(=O)CCCCCC(=O)N[C@@H](CO)C(O)c2ccc3c(c2)OCCO3)cc1 (stereo partly drawn) [Compound 477] has an IC50 of 3 to 10 µM. COc1ccc(OCCOc2ccc([C@@H](O)C(CN3CCCC3)NC(=O)CCCCC(=O)c3ccc(OC)cc3)cc2)cc1 (stereo partly drawn) [Compound 416] showed an IC50 of no more than 0.1 µM. COc1ccc(C(=O)CCCC(=O)N[C@H](CN2CCCC2)[C@H](O)c2ccc(OC)c(C)c2)cc1 [Compound 386] gave an IC50 of 0.1 to 1 µM. COc1ccc(OCCC(=O)N[C@@H](CN2CCCC2)[C@@H](O)c2ccc3c(c2)OCCO3)cc1 [Compound 674] gave an IC50 of 3 to 10 µM. With CCCCCCCC(=O)N[C@H](CN1CCCC1)[C@H](O)c1ccc(CCOC)cc1 [Compound 478] the IC50 was 0.1 to 1 µM. COc1ccc(C(=O)CCCCC(=O)N[C@H](CN2CCCC2)[C@H](O)c2ccc(O)cc2)cc1 [Compound 414] gave an IC50 of 0.1 to 1 µM. With COc1ccc(OCCC(=O)N[C@H](CN2CC3CC3C2)[C@H](O)c2ccc3c(c2)OCCO3)cc1 (stereo partly drawn) [Compound 516] the IC50 was 0.1 to 1 µM. For O=C(CCOc1ccnc2ccccc12)N[C@H](CN1CCCC1)[C@H](O)c1ccc2c(c1)OCCO2 [Compound 692], the IC50 was 0.1 to 1 µM. COc1ccc(OCCC(=O)N[C@H](CN2CCCC2)[C@H](O)/C=C/c2ccccc2)cc1 [Compound 396] showed an IC50 of 3 to 10 µM. COc1ccc(C(=O)CCCCCC(=O)N[C@H](CN2CCCC2)[C@H](O)c2ccc(OC)c(C)c2)cc1 [Compound 390] showed an IC50 of no more than 0.1 µM. In the case of CC(O)(CCCCCC(=O)N[C@H](CN1CCCC1)[C@H](O)c1ccc2c(c1)OCCO2)C1CCCCC1 (stereo partly drawn) [Compound 641], the IC50 is reported as no more than 0.1 µM. For COc1ccc(OCCC(=O)N[C@H](CN2CCCC2)[C@H](O)c2ccc(O)cc2)cc1 [Compound 712], the IC50 was 0.1 to 1 µM. For COc1ccc(C(=O)CCCC(=O)N[C@H](CN2CC[C@H](O)C2)[C@H](O)c2ccc(OC(C)C)cc2)cc1 [Compound 732], the IC50 was 0.1 to 1 µM. In the case of COc1ccc(C(=O)CCCCCC(=O)N[C@H](CN2CCCC2)[C@H](O)c2ccc3c(c2)OC(F)(F)O3)cc1 [Compound 409], the IC50 is reported as 0.1 to 1 µM. For COc1ccc(OCCC(=O)N[C@H](CN2CCCC2)[C@H](O)c2ccc(OCc3ccccc3)cc2)cc1 [Compound 705], the IC50 was no more than 0.1 µM. Compound COc1ccc(C(=O)CCCCCC(=O)N[C@H](CN2CCCC2)[C@H](O)/C=C/c2ccccc2)cc1 [Compound 394] has an IC50 of 1 to 3 µM. COc1ccc(OCCC(=O)N(Cc2ccccn2)[C@H](CN2CCCC2)[C@H](O)c2ccc(O)cc2)cc1 [Compound 716] showed an IC50 of 3 to 10 µM. With COc1ccc(OCCC(=O)N[C@H](CN2CCCC2)[C@H](O)c2ccc3c(c2)OC(F)(F)C(F)(F)O3)cc1 [Compound 402] the IC50 was 3 to 10 µM. Cc1nccn1C[C@@H](NC(=O)CCCOc1ccc(F)cc1)[C@H](O)c1ccc2c(c1)OCCO2 [Compound 570] gave an IC50 of 3 to 10 µM. O=C(CCCOn1nnc2ccccc21)N[C@H](CN1CC[C@@H](F)C1)[C@H](O)c1ccc2c(c1)OCCO2 [Compound 651] gave an IC50 of 1 to 3 µM. CCCNC[C@@H](NC(=O)CCCCCC(=O)c1ccc(OC)cc1)C(O)c1ccc2c(c1)OCCO2 (stereo partly drawn) [Compound 467] showed an IC50 of 0.1 to 1 µM. With COc1ccc(OCCC(=O)N[C@H](CN2C[C@@H]3CC[C@H]2C3)[C@H](O)c2ccc3c(c2)OCCO3)cc1 [Compound 544] the IC50 was 0.1 to 1 µM. COc1ccc(C(=O)CCCCC(=O)N[C@H](CN2CCCC2)[C@H](O)c2ccc(OCC3CCC3)cc2)cc1 [Compound 421] showed an IC50 of no more than 0.1 µM. For COc1ccc(OCCC(=O)N[C@H](CN2CC[C@@H](F)C2)[C@H](O)c2ccc(OC(C)C)cc2)cc1 [Compound 452], the IC50 was 0.1 to 1 µM. COc1ccc(OCCC(=O)N[C@H](CN2CC(O)C2)[C@H](O)c2ccc3c(c2)OCCO3)cc1 [Compound 601] was tested, and the IC50 was 3 to 10 µM. COc1ccc(OCCC(=O)N[C@H](CN2CCC[C@@H]2C)[C@@H](O)c2ccc3c(c2)OCCO3)cc1 [Compound 526] was tested, and the IC50 was 0.1 to 1 µM. COc1ccc(OCCC(=O)N(Cc2nc3ccccc3s2)[C@H](CN2CCCC2)[C@H](O)c2ccc(O)cc2)cc1 [Compound 717] showed an IC50 of 3 to 10 µM. COc1ccc(OCCC(=O)N[C@H](CN2CC[C@H](F)C2)[C@H](O)c2ccc3c(c2)OCCO3)cc1 [Compound 511] showed an IC50 of 3 to 10 µM. For COc1ccc(OCCC(=O)N[C@H](CN2CC[C@H](c3ccccc3)C2)[C@H](O)c2ccc3c(c2)OCCO3)cc1 [Compound 505], the IC50 was 3 to 10 µM. For COc1ccc(C(=O)CCCCCC(=O)N[C@H](CN2CC[C@H](O)C2)[C@H](O)c2ccc(OCCCCF)cc2)cc1 [Compound 497], the IC50 was no more than 0.1 µM. With COc1ccc(C(=O)CCCCCC(=O)N[C@H](CN2CCC(F)(F)CC2)[C@H](O)c2ccc3c(c2)OCCO3)cc1 [Compound 625] the IC50 was 3 to 10 µM. For COc1ccc([C@@H](O)[C@@H](CO)NC(=O)OCc2ccccc2)cc1F [Compound 482], the IC50 was 3 to 10 µM. COc1ccc(C(=O)CCCCC(=O)N(Cc2cccnc2)[C@H](CN2CCCC2)[C@H](O)c2ccc(O)cc2)cc1 [Compound 425] gave an IC50 of 3 to 10 µM. Compound COc1ccc(C(=O)CCCCCC(=O)N[C@H](CN2CCCC2)[C@H](O)c2ccc(Cl)cc2)cc1 [Compound 380] has an IC50 of no more than 0.1 µM. With COCCOc1ccc(C(=O)CCCC(=O)N[C@H](CN2CCCC2)[C@H](O)c2ccc(OC(C)C)cc2)cc1 [Compound 451] the IC50 was 0.1 to 1 µM. In the case of O=C(N[C@H](CN1CCCC1)[C@H](O)c1ccc2c(c1)OC(F)(F)O2)OCc1ccccc1 [Compound 404], the IC50 is reported as 3 to 10 µM. Compound CCCCCCOc1ccc([C@@H](O)[C@@H](CN2CC[C@@H](F)C2)NC(=O)CCCCC(=O)c2ccc(OC)cc2)cc1 [Compound 369] has an IC50 of no more than 0.1 µM. Cc1ccc(OCCC(=O)N[C@H](CN2CC[C@H](O)C2)[C@H](O)c2ccc(OCCCCF)cc2)cc1 [Compound 496] showed an IC50 of no more than 0.1 µM. COc1ccc(OCCC(=O)N[C@H](CN2CCCC(C)C2)[C@H](O)c2ccc3c(c2)OCCO3)cc1 (stereo partly drawn) [Compound 608] gave an IC50 of 3 to 10 µM. COc1ccc(C(=O)CCCCC(=O)N[C@H](CN2CCCC2)[C@H](O)c2ccc(OCCC(C)C)cc2)cc1 [Compound 438] showed an IC50 of no more than 0.1 µM.
